Values after ≈ are worked out from the molar mass of the structure shown. Active and inactive are the calls of the source. The rule behind the calls is not given here.
Legend:
[1] = system: Mycolicibacterium smegmatis; experiment: Antimycobacterial activity against wild type Mycobacterium smegmatis MC2155 assessed as reduction in bacterial growth incubated for 24 hrs by resazurin dye based analysis; type: functional
[2] = system: Mycolicibacterium smegmatis; experiment: Antimycobacterial activity against Mycobacterium smegmatis harboring deltaqcrCAB mutant assessed as reduction in bacterial growth incubated for 24 hrs by resazurin dye based analysis; type: functional
[3] = system: Mycolicibacterium smegmatis; experiment: (§1) Inhibition of C-terminal his-tagged wild type Mycobacterium smegmatis MC2155 cytochrome bd oxidase assessed as reduction in oxygen consumption at 25 uM measured upto 4 days by Methylene blue dye based assay; conditions: time <= 4.0 day
[4] = Binding affinity to C-terminal his-tagged Mycobacterium tuberculosis Cytochrome bd oxidase assessed as dissociation constant incubated for 5 to 10 mins by MST assay
[5] = system: Mycolicibacterium smegmatis; experiment: Antimycobacterial activity against Mycobacterium smegmatis harboring deltaqcrCAB mutant assessed as reduction in bacterial growth incubated for 2 days by resazurin dye based analysis; type: functional; conditions: 48 h, time 2 day
[6] = system: Mycolicibacterium smegmatis; experiment: Inhibition of C-terminal his-tagged wild type Mycobacterium smegmatis MC2155 cytochrome bd oxidase assessed as reduction in oxygen consumption at 5 uM measured upto 4 days in presence of Aurachin D by Methylene blue dye based assay; conditions: time <= 4.0 day
[7] = system: Mycolicibacterium smegmatis; experiment: Inhibition of C-terminal his-tagged wild type Mycobacterium smegmatis MC2155 cytochrome bd oxidase assessed as reduction in oxygen consumption at 5 uM measured upto 4 days by Methylene blue dye based assay; conditions: time <= 4.0 day
[8] = system: Mycolicibacterium smegmatis; experiment: Inhibition of C-terminal his-tagged Mycobacterium smegmatis harboring deltaqcrCAB mutant inverted-membrane vesicle cytochrome bd oxidase assessed as reduction in oxygen consumption rate at 10 uM measured upto 4 days by Methylene blue dye based assay; type: cell membranes; conditions: time <= 4.0 day
[9] = system: Mycolicibacterium smegmatis; experiment: Inhibition of C-terminal his-tagged wild type Mycobacterium smegmatis inverted-membrane vesicle cytochrome bd oxidase assessed as reduction in oxygen consumption rate at 10 uM measured upto 4 days by Methylene blue dye based assay; type: cell membranes; conditions: time <= 4.0 day
[10] = system: Mycolicibacterium smegmatis; experiment: Inhibition of C-terminal his-tagged Mycobacterium smegmatis harboring […] mutant inverted-membrane vesicle cytochrome bd oxidase assessed as reduction in oxygen consumption rate at 10 uM measured upto 4 days by Methylene blue dye based assay; type: cell membranes; conditions: time <= 4.0 day
[11] = system: Mycolicibacterium smegmatis; experiment: as §1, with “days in presence of 6-chloro-2-ethyl-N-(4-(4-(4-(trifluoromethoxy)phenyl)piperidin-1-yl)benzyl)imidazo[1,2-a]pyridine-3-carboxamide” for “days”; conditions: time <= 4.0 day

| SMILES | MIC [1] [µM] | MIC [2] [µM] | other results |
| --- | --- | --- | --- |
| Cc1c(-c2cnn(Cc3ccc(OC(F)(F)F)cc3)c2)c(=O)c2ccccc2n1O | > 400 | > 400 |  |
| Cc1c(Cc2ccc(I)cc2)c(=O)c2ccccc2n1O | > 400 | 12.5 (≈ 4.89 µg/mL) |  |
| Cc1c(Cc2ccc(N3CCN(C)CC3)cc2)c(=O)c2ccccc2n1O | > 400 | > 400 |  |
| Cc1c(Cc2ccccc2C(F)(F)F)c(=O)c2ccccc2n1O | > 400 | 50 (≈ 16.7 µg/mL) |  |
| Cc1c(Cc2ccccc2F)c(=O)c2ccccc2n1O | > 400 | 50 (≈ 14.2 µg/mL) |  |
| Cc1c(Cc2ccccc2)c(=O)c2ccccc2n1O | > 400 | 50 (≈ 13.3 µg/mL) |  |
| Cc1[nH]c2ccccc2c(=O)c1-c1cnn(Cc2ccc(OC(F)(F)F)cc2)c1 | > 400 | > 400 |  |
| Cc1c(Cc2ccc(N3CCN(c4ccc(OC(F)(F)F)cc4)CC3)cc2)c(=O)c2ccccc2n1O | > 400 | 100 (≈ 51 µg/mL) |  |
| CC(C)=CCC/C(C)=C/CC/C(C)=C/Cc1c(C)[nH]c2ccccc2c1=O [AURACHIN D] |  | 6.25 (≈ 2.27 µg/mL) | inhibition [3]: inactive |
| Cc1c(Cc2ccc(Br)cc2)c(=O)c2ccccc2n1O | > 400 | 6.25 (≈ 2.15 µg/mL) |  |
| COc1ccccc1Cc1c(C)n(O)c2ccccc2c1=O | > 400 | 25 (≈ 7.38 µg/mL) |  |
| Cc1c(Cc2ccccc2Cl)c(=O)c2ccccc2n1O | > 400 | 50 (≈ 15 µg/mL) |  |
| CN(C(=O)c1c(O)c2ccccc2n(C)c1=O)c1ccccc1 [ROQUINIMEX] |  | 260 (≈ 80.2 µg/mL) | Kd [4]: 13 µM |
| Cc1ccccc1Cc1c(C)n(O)c2ccccc2c1=O | > 400 | 25 (≈ 6.98 µg/mL) |  |
| Cc1c(Cc2ccccc2OC(F)(F)F)c(=O)c2ccccc2n1O | > 400 | 3.1 (≈ 1.08 µg/mL) | MIC [5]: 6.25 µM (≈ 2.18 µg/mL); Kd [4]: 165 µM |
| CCc1ccccc1Cc1c(C)n(O)c2ccccc2c1=O | > 400 | 50 (≈ 14.7 µg/mL) |  |
| CC(C)(C)c1cc(C(C)(C)C)c(NC(=O)c2c[nH]c3ccccc3c2=O)cc1O [IVACAFTOR] |  | 51 (≈ 20 µg/mL) | Kd [4]: 40 µM |
| Cc1c(Cc2ccc(Cl)cc2)c(=O)c2ccccc2n1O | > 400 | 6.25 (≈ 1.87 µg/mL) |  |
| CCc1nc2ccc(Cl)cn2c1C(=O)NCc1ccc(N2CCC(c3ccc(OC(F)(F)F)cc3)CC2)cc1 |  |  | inhibition [6]: Active; inhibition [7]: inactive |
| Cc1[nH]c2ccccc2c(=O)c1Cc1ccc(OC(F)(F)F)cc1 | > 400 | 50 (≈ 16.7 µg/mL) |  |
| Cc1c(Cc2ccccc2Br)c(=O)c2ccccc2n1O | > 400 | 50 (≈ 17.2 µg/mL) |  |
| Cc1c(Cc2ccc(OC(F)(F)F)cc2)c(=O)c2ccccc2n1O | > 400 | 6.25 (≈ 2.18 µg/mL) | MIC [5]: 6.25 µM (≈ 2.18 µg/mL); inhibition [3]: inactive; inhibition [8]: 86%; inhibition [9]: 74%; Kd [4]: 4.17 µM; inhibition [10]: inactive; inhibition [11]: Active |

From ChEMBL document CHEMBL5385849, “Discovery of 1-hydroxy-2-methylquinolin-4(1H)-one derivatives as new cytochrome bd oxidase inhibitors for tuberculosis therapy” (Eur J Med Chem, 2023)
